# Data published in patent US20190290683A1 (KEIO UNIVERSITY, priority 2016, published 2019).
# Like-named read-outs stand apart in the source and are kept apart here.
# How the values were obtained:
# [1] = system: hemorrhagic shock model; conditions: for Exsanguinated/body weight (ml/100 g): exsanguinated volume per 100 g of body weight to maintain blood pressure at 30-35 mmHg
# Experimental: In this Example, the effect of hydrogen gas on a hemorrhagic shock model was evaluated according to the test protocol shown in FIG. 1.
# With SD rats (male, 250-300 g), an anesthetic drug was intraperitoneally administered to perform general anesthesia. Subsequently, a PE catheter was inserted into the left femoral artery to perform direct arterial pressure monitoring, and further, an exsanguination catheter from the right femoral artery and a left ventricle catheter for cardiac function measurement from the right common artery were each inserted.
# The shock phase was initiated with the initiation of exsanguination. Exsanguination was slowly performed over 15 minutes, and for a total of 60 minutes since the initiation of exsanguination, the mean arterial pressure was maintained at 30-35 mmHg.
# The resuscitation phase was initiated with the initiation of resuscitation by transfusion. Transfusion resuscitation by four times the exsanguinated volume of saline was performed over 15 minutes. Test gas inhalation (hydrogen group (21% oxygen+1.3% hydrogen) and control group (21% oxygen)) were performed for a total of 3 hours from the initiation of exsanguination to 2 hours after the initiation of resuscitation. In doing so, cardiac function (LVEDP, ±dP/dt) during the same period was also recorded.
# The initiation of the observation phase was 2 hours after the initiation of the resuscitation phase, and observation was performed for 4 hours thereafter (6 hours from the initiation of the resuscitation phase). During this period, blood pressure (systolic, diastolic, mean), heart rate, and the like were measured with artificial respiration in room air.
# Lactic acid value and blood gas at the initiation point of shock phase (baseline), the initiation point of resuscitation phase (0 minute), the initiation point of observation phase (120 minutes), and the end-of-test timepoint (360 minutes) were each measured and evaluated.
# [2] = system: rat hemorrhagic shock model; conditions: 6 hours after initiation of resuscitation; 1.3% hydrogen+26% oxygen+72.7% nitrogen inhaled 0 to 120 minutes (resuscitation phase only); control 30%
# Experimental: In this test, improvement of the survival rate by hydrogen inhalation at the initiation point of resuscitation after shock in rat hemorrhagic shock model was evaluated.
# The procedure in SD rats (250-300 g) to exsanguinate so that mean arterial pressure of 30-35 mmHg was maintained for 60 minutes, and then resuscitate with four times the exsanguinated volume of saline over 15 minutes to evaluate the survival rate at 6 hours after initiation of resuscitation was according to [Example 1].
# In this test, test gas was given by inhalation as follows.
# [3] = change over time after initiation of resuscitation, vs control group
# [4] = change over time after initiation of resuscitation, vs control group, throughout the observation period
# [5] = electrolyte at 120 minutes, vs control group
structure (smiles),measurement,setting,value
[HH] [hydrogen gas],heart rate,"[1]; after initiation of resuscitation, vs control group",no great difference
same,pH,"[1]; blood gas at 120 minutes, vs control group, normal value about 7.4",statistically significantly higher
same,HCO3,"[1]; blood gas at 120 minutes, vs control group, normal value about 24",statistically significantly higher
same,BE (base excess),"[1]; blood gas at 120 minutes, vs control group, normal value about -2",statistically significantly improved
same,left ventricular end-diastolic pressure (LVEDP),[1]; [3],no statistically significantly difference
same,negative dP/dt,[1]; [3],no statistically significantly difference
same,positive dP/dt,[1]; [3],no statistically significantly difference
same,diastolic blood pressure,[1]; [4],higher value
same,mean blood pressure,[1]; [4],higher value
same,systolic blood pressure,[1]; [4],higher value
same,K,[1]; [5],statistically significantly lower
same,Na,[1]; [5],no statistically significant difference
same,survival (individuals surviving),"[1]; end-of-test timepoint at 6 hours after initiation of resuscitation, control 3/10",8/10
same,Exsanguinated/body weight (ml/100 g),"[1]; 21% oxygen+1.3% hydrogen, N = 15",2.60±0.40 ml/100 g
same,Exsanguinated/body weight (ml/100 g),"[1]; 21% oxygen+1.3% hydrogen, N = 15, listed as H2",2.60 ± 0.40 ml/100 g
same,Exsanguinated,"[1]; exsanguinated volume to maintain mean arterial pressure at 30-35 mmHg, 21% oxygen+1.3% hydrogen, N = 15",7.03 ± 1.15 mL
same,hemoglobin (Hb),"[1]; extent of anemia at 120 minutes, vs control group",no statistically significant difference
same,lactic acid value,"[1]; initiation point of observation phase (120 minutes), vs control group, normal value 1.0 or less",statistically significantly lower
same,PaCO2 (Partial pressure of carbon dioxide),"[1]; oxygenation indicator at 120 minutes, vs control group, normal around 40 mmHg",no statistical difference
same,PaO2 (Partial pressure of oxygen),"[1]; oxygenation indicator at 120 minutes, vs control group, normal around 100 mmHg",higher values for the control group
same,survival rate,[2],50%
